{"source": "ChEMBL document CHEMBL1649474", "about": "“Pharmacodynamics of levofloxacin in a murine pneumonia model of Pseudomonas aeruginosa infection: determination of epithelial lining fluid targets” (Antimicrob Agents Chemother, 2009)", "key": {"[1]": {"assay": "Absorption rate constant in epithelial lining fluid of Swiss-Webster mouse infected with Pseudomonas aeruginosa at 200 mg/kg, ip administered as single dose", "format": "ADME, organism-based", "set-up": "dose 200 mg/kg, route intraperitoneal", "details": "in vivo"}, "[2]": {"assay": "Apparent volume of distribution with respect to bioavailability in epithelial lining fluid of Swiss-Webster mouse infected with Pseudomonas aeruginosa at 200 mg/kg, ip administered as single dose", "format": "ADME, organism-based", "details": "read-out: Vc/F"}, "[3]": {"assay": "Drug uptake in epithelial lining fluid of Swiss-Webster mouse infected with Pseudomonas aeruginosa at 200 mg/kg, ip administered as single dose", "format": "ADME, organism-based", "set-up": "dose 200 mg/kg, route intraperitoneal", "details": "in vivo"}, "[4]": {"assay": "AUC in plasma of Swiss-Webster mouse infected with Pseudomonas aeruginosa at 200 mg/kg, ip administered as single dose", "format": "ADME, organism-based", "set-up": "dose 200 mg/kg, route intraperitoneal"}, "[5]": {"assay": "Volume of distribution in epithelial lining fluid of Swiss-Webster mouse infected with Pseudomonas aeruginosa at 200 mg/kg, ip administered as single dose", "format": "ADME, organism-based", "set-up": "dose 200 mg/kg, route intraperitoneal", "details": "in vivo"}, "[6]": {"assay": "AUC in epithelial lining fluid of Swiss-Webster mouse infected with Pseudomonas aeruginosa at 200 mg/kg, ip administered as single dose", "format": "ADME, organism-based", "set-up": "dose 200 mg/kg, route intraperitoneal"}, "[7]": {"assay": "Apparent clearance in epithelial lining fluid of Swiss-Webster mouse infected with Pseudomonas aeruginosa at 200 mg/kg, ip administered as single dose"}, "[8]": {"test_system": "Pseudomonas aeruginosa", "assay": "Antimicrobial activity against Pseudomonas aeruginosa infected in Swiss-Webster mouse at 200 mg/kg, ip administered as single dose", "format": "functional, organism-based", "set-up": "dose 200 mg/kg, route intraperitoneal"}}}
{"smiles": "C[C@H]1COc2c(N3CCN(C)CC3)c(F)cc3c(=O)c(C(=O)O)cn1c23.C[C@H]1COc2c(N3CCN(C)CC3)c(F)cc3c(=O)c(C(=O)O)cn1c23.O", "note": "[LEVOFLOXACIN]", "values": [{"measurement": "Ka", "setting": "[1]", "result": 7.81, "unit": "h⁻¹"}, {"measurement": "Vd/F", "setting": "[2]", "result": 0.044, "unit": "L"}, {"measurement": "Drug uptake", "setting": "[3]", "result": 77.7, "unit": "%"}, {"measurement": "AUC", "setting": "[4]", "result": 64000, "unit": "ng·h/mL"}, {"measurement": "Vd", "setting": "[5]", "result": 0.024, "unit": "L"}, {"measurement": "AUC", "setting": "[6]", "result": 49800, "unit": "ng·h/mL"}, {"measurement": "CL/F", "setting": "[7]", "result": 1.3, "unit": "mL/min"}, {"measurement": "EC50", "setting": "[8]", "result": 3.15, "unit": "µg/mL"}]}
